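Test compounds were applied to cells in 96-well plates for 48 hours at 5 doses. GI50 marks 50% less growth. At the TGI there is no net growth.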
How the values were obtained:
Assay in all cases: NCI anticancer screen, dose series, 48 h
[1] = system: OVCAR-4 ovarian
[2] = system: SK-MEL-2 melanoma
[3] = system: EKVX NSCLC
[4] = system: NCI-H23 lung
[5] = system: RXF 393 renal
[6] = system: RPMI-8226 leukemia
[7] = system: HT29 colon
[8] = system: SK-MEL-5 melanoma
[9] = system: UO-31 renal
[10] = system: MCF7 breast

N#CCCCCCn1c2ccccc2c2c3c(c4c5ccccc5[nH]c4c21)C(=O)N(O)C3=O
GI50 [1]: 1.9 µM
TGI [1]: 13 µM
GI50 [2]: 1.83 µM
TGI [2]: 4.67 µM
GI50 [3]: 1.77 µM
TGI [3]: 5.63 µM
GI50 [4]: 1.55 µM
TGI [4]: 5.54 µM
GI50 [5]: 1.7 µM
TGI [5]: 4.69 µM
GI50 [6]: 1.04 µM
TGI [6]: 3.47 µM
GI50 [7]: 1.86 µM
TGI [7]: 4.66 µM
GI50 [8]: 0.403 µM
TGI [8]: 1.5 µM

CCCN(CCC)c1c([N+](=O)[O-])cc(C(N)=O)cc1[N+](=O)[O-]
TGI [1]: > 100 µM
TGI [2]: > 100 µM
TGI [3]: > 100 µM
TGI [4]: > 100 µM
TGI [9]: > 100 µM
TGI [6]: > 100 µM
TGI [7]: > 100 µM
TGI [8]: 53.8 µM

CC(C(=O)C(C)O[Si](c1ccccc1)(c1ccccc1)C(C)(C)C)=P(c1ccccc1)(c1ccccc1)c1ccccc1 (stereo not given)
TGI [1]: 13.9 µM
TGI [2]: 7.64 µM
TGI [3]: 29.2 µM
TGI [4]: 15.5 µM
TGI [9]: 17.2 µM
TGI [6]: 6.58 µM
TGI [7]: 11.5 µM
TGI [8]: 8.12 µM

O=C1CCC(=O)C(C(=O)CCC(=O)Nc2ccc(Cl)cc2)C1 (stereo not given)
TGI [1]: > 100 µM
TGI [2]: > 100 µM
TGI [3]: > 100 µM
TGI [4]: > 100 µM
TGI [9]: > 100 µM
TGI [6]: > 100 µM
TGI [7]: > 100 µM
TGI [8]: > 100 µM

COC(=O)C([O][Ge]([CH3])([CH3])[CH3])c1ccccc1 (stereo not given)
GI50 [1]: > 100 µM
TGI [1]: > 100 µM
GI50 [3]: > 100 µM
TGI [3]: > 100 µM
GI50 [4]: > 100 µM
TGI [4]: > 100 µM
GI50 [9]: > 100 µM
TGI [9]: > 100 µM
GI50 [7]: > 100 µM
TGI [7]: > 100 µM
GI50 [8]: > 100 µM
TGI [8]: > 100 µM

Cn1cc(C2=C(c3cccc(Cl)c3)C(=O)NC2=O)c2ccccc21
GI50 [10]: > 25 µM
TGI [10]: > 25 µM
GI50 [1]: > 22.6 µM
TGI [1]: > 25 µM
GI50 [2]: > 25 µM
TGI [2]: > 25 µM
GI50 [4]: > 25 µM
TGI [4]: > 25 µM
GI50 [5]: 8.22 µM
TGI [5]: > 25 µM
GI50 [9]: 8.3 µM
TGI [9]: > 25 µM
GI50 [6]: > 25 µM
TGI [6]: > 25 µM
GI50 [7]: 10.3 µM
TGI [7]: > 25 µM
GI50 [8]: 10.7 µM
TGI [8]: > 25 µM

COc1ccccc1NC(=O)NS(=O)(=O)c1ccccc1
TGI [1]: > 100 µM
TGI [2]: > 100 µM
TGI [3]: > 100 µM
TGI [4]: > 100 µM
TGI [5]: 98.2 µM
TGI [9]: > 100 µM
TGI [7]: > 100 µM
TGI [8]: > 100 µM

COc1ccc2nc(NC(=O)C(=O)C(C#N)c3ccc(CC#N)cc3)sc2c1 (stereo not given)
TGI [1]: > 100 µM
TGI [2]: > 100 µM
TGI [3]: > 100 µM
TGI [4]: > 100 µM
TGI [5]: > 100 µM
TGI [9]: > 100 µM
TGI [6]: > 100 µM
TGI [7]: > 100 µM
TGI [8]: > 100 µM

c1ccc2c(Nc3ccc4c(c3)OCO4)c3ccoc3nc2c1
GI50 [10]: 12.6 µM
TGI [10]: > 100 µM
GI50 [1]: 29.4 µM
TGI [1]: > 100 µM
GI50 [2]: 26.4 µM
TGI [2]: > 100 µM
GI50 [4]: 10.9 µM
TGI [4]: 27.3 µM
GI50 [5]: 3.53 µM
TGI [5]: 23.1 µM
GI50 [9]: 23.6 µM
TGI [9]: > 100 µM
GI50 [6]: 3.26 µM
TGI [6]: 25.6 µM
GI50 [8]: 8.85 µM
TGI [8]: 31.2 µM

C=CCN1C(=O)C/C(=C2/CCC(=O)N2CC=C)C1=O
TGI [1]: > 100 µM
TGI [2]: > 100 µM
TGI [3]: > 100 µM
TGI [4]: > 100 µM
TGI [5]: > 100 µM
TGI [9]: > 100 µM
TGI [7]: > 100 µM
TGI [8]: > 100 µM

O=C(CN1CCN(c2cc3c(cc2F)c(=O)c(C(=O)O)cn3C2CC2)CC1)Nc1ccc(C(=O)/C=C/c2ccccc2)cc1
GI50 [10]: 3.52 µM
TGI [10]: > 100 µM
GI50 [1]: 9.47 µM
TGI [1]: > 100 µM
GI50 [2]: 2.94 µM
TGI [2]: 11.3 µM
GI50 [4]: 2.48 µM
TGI [4]: 14.3 µM
GI50 [5]: 2.5 µM
TGI [5]: > 100 µM
GI50 [9]: 2.78 µM
TGI [9]: 45.4 µM
GI50 [6]: 2.52 µM
TGI [6]: 6.73 µM
GI50 [7]: 2.99 µM
TGI [7]: 10.3 µM
GI50 [8]: 2.74 µM
TGI [8]: 13 µM

O=C1/C(=C/c2ccc(Cl)cc2)COc2ccc(Br)cc21
TGI [2]: > 100 µM
TGI [3]: > 100 µM
TGI [4]: > 100 µM
TGI [5]: > 100 µM
TGI [9]: > 100 µM
TGI [6]: 74.4 µM
TGI [7]: > 100 µM
TGI [8]: > 100 µM

c1cc[c]([Sn]([O]c2cccc3cccnc23)([c]2ccccc2)[c]2ccccc2)cc1
GI50 [1]: 0.0146 µM
TGI [1]: 0.0343 µM
GI50 [2]: 0.0217 µM
TGI [2]: 0.059 µM
GI50 [3]: 0.0416 µM
TGI [3]: 0.17 µM
GI50 [4]: 0.0158 µM
TGI [4]: 0.0397 µM
GI50 [5]: 0.0154 µM
TGI [5]: 0.0333 µM
GI50 [9]: 0.0163 µM
TGI [9]: 0.0301 µM
GI50 [6]: 0.0184 µM
TGI [6]: 0.05 µM
GI50 [7]: 0.0311 µM
TGI [7]: 0.095 µM
GI50 [8]: 0.0186 µM
TGI [8]: 0.0422 µM

O=C1NC(=Nc2ccccc2Cl)SC1C(=O)Nc1ccc([N+](=O)[O-])cc1[N+](=O)[O-] (stereo not given)
TGI [1]: > 100 µM
TGI [2]: > 100 µM
TGI [3]: > 100 µM
TGI [4]: > 100 µM
TGI [5]: > 100 µM
TGI [9]: > 100 µM
TGI [6]: > 100 µM
TGI [7]: > 100 µM
TGI [8]: > 100 µM

CN(C)/C=C/C(=O)c1cccc(C(=O)/C=C/N(C)C)n1
TGI [1]: > 100 µM
TGI [2]: > 100 µM
TGI [3]: > 100 µM
TGI [4]: > 100 µM
TGI [5]: > 100 µM
TGI [9]: > 100 µM
TGI [6]: > 100 µM
TGI [7]: > 100 µM
TGI [8]: > 100 µM

Cn1cc(C2=C(c3cn(C)c4cc(Cl)ccc34)C(=O)NC2=O)c2ccccc21
GI50 [10]: 0.0972 µM
TGI [10]: > 25 µM
GI50 [1]: 0.362 µM
TGI [1]: > 25 µM
GI50 [2]: 0.212 µM
TGI [2]: > 25 µM
GI50 [4]: 0.106 µM
TGI [4]: 9.1 µM
GI50 [9]: 0.195 µM
TGI [9]: > 25 µM
GI50 [6]: 0.0939 µM
TGI [6]: > 15.2 µM
GI50 [7]: 0.0928 µM
TGI [7]: > 9.62 µM
GI50 [8]: 0.102 µM
TGI [8]: 2.39 µM

CCN1CCN(c2nc(NNC(=O)c3cccc(OC)c3)nc(N3CCN(C(c4ccccc4)c4ccccc4)CC3)n2)CC1
GI50 [1]: 2.06 µM
TGI [1]: 5.97 µM
GI50 [2]: 2.02 µM
TGI [2]: 4.05 µM
GI50 [3]: 2.46 µM
TGI [3]: 12.3 µM
GI50 [4]: 1.92 µM
TGI [4]: 5.03 µM
GI50 [5]: 1.63 µM
TGI [5]: 3.1 µM
GI50 [9]: 1.23 µM
TGI [9]: 2.47 µM
GI50 [6]: 1.84 µM
TGI [6]: 4.4 µM
GI50 [8]: 1.64 µM
TGI [8]: 3 µM
